Experiments:
[1] = target: Muscarinic acetylcholine receptors; M1 & M2 (Homo sapiens) (UniProt P11229+P08172); test: Selectivity for muscarinic M1 receptor over muscarinic M2 receptor; assay type: protein assay
[2] = target: T1, Muscarinic acetylcholine receptor M1 (Homo sapiens, UniProt P11229); test: Binding affinity to muscarinic M1 receptor
T1 sequence (P11229 whole entry): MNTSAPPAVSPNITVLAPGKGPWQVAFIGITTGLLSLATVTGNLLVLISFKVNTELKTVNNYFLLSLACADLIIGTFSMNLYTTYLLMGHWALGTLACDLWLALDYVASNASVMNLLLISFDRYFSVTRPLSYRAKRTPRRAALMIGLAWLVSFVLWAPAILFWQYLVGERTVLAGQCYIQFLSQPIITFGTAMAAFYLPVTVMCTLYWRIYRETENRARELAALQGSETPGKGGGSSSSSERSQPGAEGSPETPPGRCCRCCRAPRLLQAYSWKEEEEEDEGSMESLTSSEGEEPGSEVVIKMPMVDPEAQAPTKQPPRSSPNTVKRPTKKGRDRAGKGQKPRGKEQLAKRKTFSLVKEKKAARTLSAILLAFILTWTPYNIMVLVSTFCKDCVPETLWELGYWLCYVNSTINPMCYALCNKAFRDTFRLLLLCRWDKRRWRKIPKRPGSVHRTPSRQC

Ratio pKi [1]	Ki [2]	Compound
2.02	37.4 nM	C=C(c1ccc(S(=O)(=O)c2ccc(OC)cc2)cc1)C1CCN(C2CCN(S(=O)(=O)c3ccccc3)CC2)CC1
1.54	10.5 nM	C=C(c1ccc(S(=O)(=O)c2ccc(OC)cc2)cc1)C1CCN(C2CCN(C(=O)OCC(C)C)CC2)CC1
1.56	14.8 nM	C=C(c1ccc(S(=O)(=O)c2ccc(OC)cc2)cc1)C1CCN(C2CCN(C(=O)OC(C)C)CC2)CC1
1.45	9.79 nM	C=C(c1ccc(S(=O)(=O)c2ccc(OC)cc2)cc1)C1CCN(C2CCN(C(=O)OCCCC)CC2)CC1
1.2	60.8 nM	C=C(c1ccc(S(=O)(=O)c2ccc(OC)cc2)cc1)C1CCN(C2CCN(C(=O)CC)CC2)CC1
2.3	31.7 nM	C=C(c1ccc(S(=O)(=O)c2ccc(OC)cc2)cc1)C1CCN(C2CCN(S(=O)(=O)C(C)C)CC2)CC1
1.72	117 nM	C=C(c1ccc(S(=O)(=O)c2ccc(OC)cc2)cc1)C1CCN(C2CCN(C(=O)C(C)C)CC2)CC1
2.21	74.5 nM	C=C(c1ccc(S(=O)(=O)c2ccc(OC)cc2)cc1)C1CCN(C2CCN(S(=O)(=O)CC)CC2)CC1
1.84	40.7 nM	C=C(c1ccc(S(=O)(=O)c2ccc(OC)cc2)cc1)C1CCN(C2CCN(C(=O)OCCC)CC2)CC1
1.5	95.7 nM	C=C(c1ccc(S(=O)(=O)c2ccc(OC)cc2)cc1)C1CCN(C2CCN(C(=O)Cc3ccccc3)CC2)CC1
1.36	33.3 nM	C=C(c1ccc(S(=O)(=O)c2ccc(OC)cc2)cc1)C1CCN(C2CCN(S(=O)(=O)Cc3ccccc3)CC2)CC1
1.38	10.8 nM	C=C(c1ccc(S(=O)(=O)c2ccc(OC)cc2)cc1)C1CCN(C2CCN(C(=O)OCc3ccccc3)CC2)CC1
1.78	60.4 nM	C=C(c1ccc(S(=O)(=O)c2ccc(OC)cc2)cc1)C1CCN(C2CCN(C(=O)OC)CC2)CC1
0.903	–	C=C(c1ccc(S(=O)(=O)c2ccc(OC)cc2)cc1)C1CCN(C2CCNCC2)CC1
2.04	–	C=C(c1ccc(S(=O)(=O)c2ccc(OC)cc2)cc1)C1CCN(C2CCN(C(=O)CCC)CC2)CC1
1.95	–	C=C(c1ccc(S(=O)(=O)c2ccc(OC)cc2)cc1)C1CCN(C2CCN(S(=O)(=O)CCC)CC2)CC1
2.18	57 nM	C=C(c1ccc(S(=O)(=O)c2ccc(OC)cc2)cc1)C1CCN(C2CCN(S(=O)(=O)CCCC)CC2)CC1
1.77	–	C=C(c1ccc(S(=O)(=O)c2ccc(OC)cc2)cc1)C1CCN(C2CCN(C(=O)OCC)CC2)CC1
2.42	68.1 nM	C=C(c1ccc(S(=O)(=O)c2ccc(OC)cc2)cc1)C1CCN(C2CCN(C(=O)C3CC3)CC2)CC1
